Assay results from the NIST ThermoML archive (doi:10.1021/je034062r).

Assays:
[1] = 101.3 kPa, Liquid mixture 1
[2] = xn = mol fraction of the nth substance listed; details: for surface tension liquid-gas: Pendant drop shape; for mass density: Liquid

CN1CCCC1=O [N-methylpyrrolidone] + CCCCCCC
[1]
Details | interfacial tension [mN/m]
297.76 K | 1.202
302.78 K | 0.93
307.81 K | 0.68
312.84 K | 0.45
317.79 K | 0.24
320.65 K | 0.137
322.8 K | 0.079
323.75 K | 0.055
324.8 K | 0.033
325.43 K | 0.019
325.81 K | 0.012
326.1 K | 0.009

CC(C)=O [acetone] + C1CCCCC1
[2]
Details | mass density, 288.15 K [kg/m3] | mass density, 298.15 K [kg/m3] | mass density, 308.15 K [kg/m3] | mass density, 318.15 K [kg/m3] | surface tension liquid-gas, 287.81 K [mN/m] | surface tension liquid-gas, 297.82 K [mN/m] | surface tension liquid-gas, 307.86 K [mN/m] | surface tension liquid-gas, 317.86 K [mN/m]
x2 = 0 | 798.2 | 787 | 775.4 | 762.5 | 23.94 | 22.78 | 21.59 | 20.33
x2 = 0.1002 | 790 | 779.7 | 768.4 | 756.9 | 23.54 | 22.25 | 21.03 | 19.91
x2 = 0.2001 | 786.6 | 775.3 | 764.2 | 753 | 23.19 | 22.02 | 20.78 | 19.63
x2 = 0.2993 | 783.2 | 772.3 | 761.4 | 750.2 | 23.23 | 22.02 | 20.82 | 19.63
x2 = 0.3979 | 781.1 | 769.7 | 759.6 | 748.6 | 23.33 | 22.08 | 20.89 | 19.7
x2 = 0.4964 | 779.7 | 769.2 | 758.6 | 747.8 | 23.58 | 22.22 | 21.14 | 20
x2 = 0.6 | 778.9 | 768.6 | 758.2 | 747.6 | 23.91 | 22.53 | 21.35 | 20.3
x2 = 0.6975 | 778.9 | 768.7 | 759.9 | 748.3 | 24.31 | 22.84 | 21.6 | 20.56
x2 = 0.7993 | 779.4 | 769.5 | 759.6 | 749.6 | 24.69 | 23.24 | 22.08 | 21.04
x2 = 0.8994 | 780.7 | 771.1 | 761.4 | 751.6 | 25.12 | 23.82 | 22.58 | 21.46

C1CCCCC1 [cyclohexane] + CC(C)=O
[2], x1 = 1
Details | mass density [kg/m3] | surface tension liquid-gas [mN/m]
287.81 K | – | 25.34
288.15 K | 783.2 | –
297.82 K | – | 24.2
298.15 K | 773.9 | –
307.86 K | – | 23.02
308.15 K | 764.4 | –
317.86 K | – | 21.84
318.15 K | 754.8 | –

CCCCCCCCCC [decane] + CN(C)C=O
[1]
Details | interfacial tension [mN/m]
292.78 K | 3.78
297.77 K | 3.41
302.79 K | 3.1
307.81 K | 2.72
312.79 K | 2.4
317.8 K | 2.09
322.78 K | 1.82
327.81 K | 1.53
332.81 K | 1.24
337.76 K | 0.95
342.78 K | 0.69
346.8 K | 0.48
348.32 K | 0.37
350.11 K | 0.32
352.77 K | 0.19
353.65 K | 0.15
354.76 K | 0.105
355.31 K | 0.083
355.62 K | 0.07
356.15 K | 0.056
356.72 K | 0.035
357.15 K | 0.019
357.45 K | 0.012

CN(C)C=O [dimethylformamide] + CCCCCCC
[1]
Details | interfacial tension [mN/m]
297.83 K | 2.49
302.83 K | 2.19
307.85 K | 1.87
312.85 K | 1.59
317.86 K | 1.26
322.86 K | 0.93
327.88 K | 0.66
332.88 K | 0.42
334.87 K | 0.302
336.86 K | 0.213
337.88 K | 0.169
338.88 K | 0.122
339.87 K | 0.086
340.87 K | 0.042
341.25 K | 0.032
341.88 K | 0.02
342.18 K | 0.011

CCCCCCC [heptane] + C1CCCCC1
[2], x2 = 0
Details | mass density [kg/m3] | surface tension liquid-gas [mN/m]
283.15 K | 692.2 | –
287.81 K | – | 20.7
288.15 K | 688 | –
293.15 K | 683.8 | –
297.82 K | – | 19.63
298.15 K | 679.5 | –
303.15 K | 675.2 | –
307.86 K | – | 18.68
308.15 K | 670.9 | –
313.15 K | 666.5 | –
317.86 K | – | 17.76
318.15 K | 662.1 | –
323.15 K | 657.7 | –
327.88 K | – | 16.68
328.15 K | 653.2 | –
333.15 K | 648.7 | –

Cc1ccccc1 [toluene] + CC(C)=O
[2], x1 = 1
Details | mass density [kg/m3] | surface tension liquid-gas [mN/m]
283.15 K | 875.9 | –
287.81 K | – | 28.93
288.15 K | 871.4 | –
293.15 K | 866.9 | –
297.82 K | – | 27.76
298.15 K | 862.4 | –
303.15 K | 857.8 | –
307.86 K | – | 26.6
308.15 K | 853.2 | –
313.15 K | 848.6 | –
317.86 K | – | 25.46
318.15 K | 843.9 | –
323.15 K | 839.2 | –
327.88 K | – | 24.29
328.15 K | 834.5 | –
333.15 K | 829.8 | –
